Measurements: patent US20080200403A1, “9A-Carbamoyl and Thiocarbamoyl Azalides with Anti-Inflammatory Activity” (GLAXOSMITHKLINE, priority 2005, published 2008)
Like-named read-outs stand apart in the source and are kept apart here.

Legend:
TNF-α [1] = assay: Inhibition of TNF-α production by stimulated human peripheral blood leukocytes in vitro; type: cell-based; conditions: Homo sapiens, Leukocyte, PBL, read-out: Percentage of inhibition of TNF-α production; for inhibition at 10 µM: compound 10 μM; for inhibition at 50 µM: compound 50 μM
Method in brief: (§1)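 Dextran-isolated human PBL (3-5×10^6 per well) in RPMI with 10% FCS were preincubated 2 h at 37 °C with compounds at 50 μM or 10 μM final, then stimulated overnight with 2 μg/mL LPS, 1 μg/mL PMA or 120 μg/mL zymosan. Supernatant cytokines by sandwich ELISA; % inhibition versus stimulated untreated control.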

[2] = tested on: human peripheral blood mononuclear cells (PBMC); assay: Human T-cell proliferation in vitro (3H-thymidine incorporation); type: cell-based; conditions: Homo sapiens, PBMC, read-out: Percentage of inhibition of proliferation of stimulated PBMC; for inhibition at 10 µM: compound 10 μM; for inhibition at 50 µM: compound 50 μM
Method in brief: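 Donor PBMC isolated on Histopaque, 5×10^4 cells/well cultured 3 days at 37 °C with PHA (2.5 μg/mL) or PMA (10 ng/mL) plus ionomycin (500 ng/mL), and compound at 50 μM or 10 μM. 3H-thymidine pulse during final 18 h; % inhibition versus stimulated untreated cpm.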

IL-8 = assay: Inhibition of IL-8 production by stimulated human peripheral blood leukocytes in vitro; type: cell-based; conditions: Homo sapiens, Leukocyte, PBL, read-out: Percentage of inhibition of IL-8 production; for inhibition at 10 µM: compound 10 μM; for inhibition at 50 µM: compound 50 μM
Method in brief: as §1

IL-1α = assay: Inhibition of IL-1 production by stimulated human peripheral blood leukocytes in vitro; type: cell-based; conditions: Homo sapiens, Leukocyte, PBL, read-out: Percentage of inhibition of IL-1α production; for inhibition at 10 µM: compound 10 μM; for inhibition at 50 µM: compound 50 μM
IL-6 = assay: Inhibition of IL-6 production by stimulated human peripheral blood leukocytes in vitro; type: cell-based; conditions: Homo sapiens, Leukocyte, PBL, read-out: Percentage of inhibition of IL-6 production; for inhibition at 10 µM: compound 10 μM; for inhibition at 50 µM: compound 50 μM
Method in brief: as §1

TNF-α [3] = assay: Lipopolysaccharide induced TNF-α production in Balb/cJ mice; type: in vivo; conditions: LPS stimulated Balb/cJ mice, 10 mg/kg b.w. intraperitoneally, plasma 90 min after challenge
Method: Male Balb/cJ mice (Iffa Credo, France), 18 animals weighing 25-33 g were randomly grouped (7 animals were treated with the test compounds, 7 were in positive control and 4 in negative control). Substances, as well as vehiculum [0.125% carboxymethyl-cellulose (Sigma, USA)], were administered intraperitoneally. Substances were administered in the dose of 10 mg/kg b.w. Administered volume was 10 mL/kg b.w. Thirty minutes later, lipopolysaccharide (LPS) (Sigma, USA) solution in sterile saline at concentration and volume of 25 μg/0.2 mL of sterile saline/mouse was intraperitoneally administered to each animal except those in negative control. Ninety minutes after the challenge all animals were bled to death by puncturing a carotis communis. Plasma concentration of TNF-α was determined by sandwich ELISA, using capture and detection antibodies (R&D, USA) according to manufacturer's recommendations. Results are presented in the following table as % of inhibition of TNF-α production in comparison to positive control (challenged but not treated animals).

SMILES | inhibition at 10 µM (TNF-α [1]; LPS stimulated) | inhibition at 50 µM (TNF-α [1]; LPS stimulated) | inhibition at 10 µM (TNF-α [1]; PMA stimulated) | inhibition at 50 µM (TNF-α [1]; PMA stimulated) | inhibition at 10 µM (TNF-α [1]; zymosan stimulated) | inhibition at 50 µM (TNF-α [1]; zymosan stimulated) | inhibition at 10 µM ([2]; PHA stimulated) | inhibition at 50 µM ([2]; PHA stimulated) | inhibition at 10 µM ([2]; PMA + ionomycin stimulated) | inhibition at 50 µM ([2]; PMA + ionomycin stimulated) | inhibition at 10 µM (IL-8; LPS stimulated) | inhibition at 50 µM (IL-8; LPS stimulated) | inhibition at 10 µM (IL-8; PMA stimulated) | inhibition at 50 µM (IL-8; PMA stimulated) | inhibition at 10 µM (IL-8; zymosan stimulated) | inhibition at 50 µM (IL-8; zymosan stimulated) | inhibition at 10 µM (IL-1α; LPS stimulated) | inhibition at 50 µM (IL-1α; LPS stimulated) | inhibition at 10 µM (IL-1α; PMA stimulated) | inhibition at 50 µM (IL-1α; PMA stimulated) | other results
CC[C@H]1OC(=O)[C@H](C)[C@@H](O[C@H]2C[C@@](C)(OC)[C@@H](O)[C@H](C)O2)[C@H](C)[C@@H](O[C@@H]2O[C@H](C)C[C@H](N(C)C)[C@H]2O)[C@](C)(OC)C[C@@H](C)C(=O)[C@H](C)[C@@H](O)[C@]1(C)O [Clarithromycin, clarithromycin, reference compound] | 0% | 0% | 0% | 0% | 0% | 0% | 0% | 7% | 9% | 14% | 23% | 0% | 33% | 0% | 0% | 0% | 0% | 0% | 26% | 33% | inhibition at 10 µM (IL-1α; zymosan stimulated): 36%; inhibition at 50 µM (IL-1α; zymosan stimulated): 59%; inhibition at 10 µM (IL-6; LPS stimulated): 11%; inhibition at 50 µM (IL-6; LPS stimulated): 0%; inhibition at 10 µM (IL-6; PMA stimulated): 0%; inhibition at 50 µM (IL-6; PMA stimulated): 0%; inhibition at 10 µM (IL-6; zymosan stimulated): 28%; inhibition at 50 µM (IL-6; zymosan stimulated): 0%; TNF-α (% inhibition) (TNF-α [3]): 63%
CC[C@H]1OC(=O)[C@H](C)[C@@H](O[C@H]2C[C@@](C)(OC)[C@@H](O)[C@H](C)O2)[C@H](C)[C@@H](O[C@@H]2O[C@H](C)C[C@H](N(C)C)[C@H]2O)[C@](C)(O)C[C@@H](C)CN(C)[C@H](C)[C@@H](O)[C@]1(C)O [Azithromycin, azithromycin, reference compound] | 36% | 20% | 0% | 0% | 6% | 64% | 5% | 29% | 9% | 31% | 0% | 0% | 0% | 0% | 0% | 0% | 28% | 48% | 0% | 0% | inhibition at 10 µM (IL-1α; zymosan stimulated): 20%; inhibition at 50 µM (IL-1α; zymosan stimulated): 75%; inhibition at 10 µM (IL-6; LPS stimulated): 15%; inhibition at 50 µM (IL-6; LPS stimulated): 40%; inhibition at 10 µM (IL-6; PMA stimulated): 0%; inhibition at 50 µM (IL-6; PMA stimulated): 0%; inhibition at 10 µM (IL-6; zymosan stimulated): 20%; inhibition at 50 µM (IL-6; zymosan stimulated): 75%; TNF-α (% inhibition) (TNF-α [3]): 54%
